According to patent US7767463B2, “Method for screening mobile phases in chromatography systems” (Cohesive Technologies, Inc., priority 2007, dated 2010):

Format: physicochemical
Description: The method provided herein provides for a technique to more reliably screen and select an appropriate eluent protocol. In an exemplary embodiment, reference is therefore made to FIG. 2. A given solvent or solvent combination may be prepared 210. Then a desired sample, alone or premixed with the same or another solvent, may be combined with the given solvent forming a mobile phase 220. The mobile phase may then be passed through a membrane 230. As discussed more fully below, the membrane may be representative of a particular chromatographic column with respect to variables such as pore diameter. The pressure of the mobile phase as it passes through the membrane may then be measured by pressure detectors on one or both sides of the membrane 240. The pressure differential between mobile phases containing the desired sample and various solvents may be assessed at 250. […]
The pressure developed prior to the membrane as the mobile phase passes through the membrane may be, as discussed above, indicative of the dissolution between the sample and the solvent. […] In addition, by comparing the pressure developed prior to the membrane of a given mobile phase P1 with a sample to a similar sample in other and different solvents, relative solubility may again be determined. […]

c1ccc2ccccc2c1 [naphthalene]
pressure differential: 25 bar
